From patent publication US20090099240A1, “METHODS FOR TREATING ENERGY METABOLISM DISORDERS BY INHIBITING FATTY ACID AMIDE HYDROLASE ACTIVITY” (N.V. Organon, priority 2006, published 2009)
Blank lines part the entries; values can stand above or below the compound they belong to.

Assays:
[1] = system: APOE*3-Leiden transgenic (E3L) mice; test: Organ and tissue weights in E3L mice on high cholesterol diet
Text: (§1) We assessed the effect of inhibiting FAAH activity on body weight, body fat, triglyceride levels, cholesterol levels in APOE*3-Leiden transgenic (E3L) mice, an animal model of hyperlipidemia. […] See van Vlijmen et al. (1994), J. Clin Invest., 93:1403-1410. Indeed, upon high fat and cholesterol feeding, these mice develop various stages of atherosclerotic lesions depending on plasma total cholesterol levels and resembling those found in humans. See Groot et al. (1996), Arterioscler. Thromb. Vasc. Biol., 16:926-933; Versch ren et al. (2005), Arterioscler. Thromb. Vasc Biol., 25:161-167; and Lutgens et al. (1999), Circulation; 99(2):276-283). Thus, the E3L mouse is a suitable model for the investigation of the efficacy of anti-atherosclerotic drugs.
(§2) E3L mice were fed a high cholesterol (1% w/w) diet (HC diet) for a period of four weeks. Animals were then matched based on their plasma cholesterol levels, and were divided into five groups, each of which was maintained on an HC diet.
(§3) Blood samples were collected at days 0, 14, and 28 of the treatment period. At the end of the treatment period, animals were sacrificed, and various tissues and organs were analyzed. Unless otherwise indicated, values are mean±standard deviation (SD).

[2] = system: APOE*3-Leiden transgenic (E3L) mice; test: Lipid content of liver (TLC) in E3L mice; type: in vivo, mouse
Text: as §2
A reduction of Red Oil O staining in liver generally indicates reduced liver lipid content. We therefore quantified levels of lipids in livers from each animal, as described in Havekes et al. (1987), Biochem. J., 247:739-746; Delsing et al. (2005), J. Cardiovasc. Pharmacol., 45:53-60; and Post et al. (2004), ATVB, 24:768-774. Liver tissue homogenates were prepared. Lipids were extracted, dried under nitrogen, dissolved in chloroform, and spotted onto a channeled 20×20 cm silica gel thin layer chromatography (TLC) plate. Lipids were then separated, TLC plates were warmed up to visualize bands, and bands were quantified using an internal standard as reference.

[3] = system: APOE*3-Leiden transgenic (E3L) mice; test: Plasma alanine aminotransferase (ALAT) activity in E3L mice; type: in vivo, mouse; conditions: day 28
Protocol: as §2
Levels of plasma alanine aminotransferase (ALAT) were determined on day 28 (table 7). Plasma ALAT is a measure of hepatic stress and increases in plasma ALAT levels are often associated with liver damage. […] Thus, a reduction in plasma ALAT levels is associated with improved liver function.

[4] = system: APOE*3-Leiden transgenic (E3L) mice; test: Total plasma triglyceride levels in E3L mice; type: in vivo, mouse
Text: as §1, §2, §3

[5] = system: APOE*3-Leiden transgenic (E3L) mice; test: Total plasma cholesterol in E3L mice; type: in vivo, mouse
Text: as §1, §2, §3

[6] = system: APOE*3-Leiden transgenic (E3L) mice; test: Body weight in E3L mice on high cholesterol diet; type: in vivo, mouse
Text: as §1, §2

[7] = system: APOE*3-Leiden transgenic (E3L) mice; test: Plasma ketone body (D-3-hydroxybutyrate) levels in E3L mice; type: in vivo, mouse
Text: as §2
We quantified plasma D-3-hydroxybutyrate (b-HBA; ketone bodies) levels were quantified in plasma samples obtained after a 4-hour fasting period at time points t=0, t=2, and t=4 weeks using kits #2940 (b-HBA reagent set) and #2947 (b-HBA control set)) according to the guidelines and protocol specified by the manufacturer (Instruchemie, Delfzijl, The Netherlands).

[8] = system: APOE*3-Leiden transgenic (E3L) mice; test: Food intake per animal per day in E3L mice; type: in vivo, mouse
Text: as §1, §2

[9] = system: APOE*3-Leiden transgenic (E3L) mice; test: Plasma leptin ELISA in E3L mice; type: in vivo, mouse
Text: as §2
Accordingly, we quantified plasma leptin levels after a four hour fasting period at treatment time points 0, 14, and 28 days using a mouse-specific leptin ELISA or (kit number MOB00 from R&D Systems, Minneapolis, Minn.) according to the guidelines and protocol specified by the manufacturer.

[10] = system: APOE*3-Leiden transgenic (E3L) mice; test: Oil Red O staining of liver sections (steatosis) in E3L mice; type: in vivo, mouse
Text: as §2
In order to examine cellular stress in the liver due to lipid storage (steatosis), we stained frozen liver tissue sections with Oil Red O a fat-soluble diazo dye used to stain for lipids. Digital photomicrographs of liver cross sections were taken for each individual animal (magnification: 20 fold). […]

[11] = system: APOE*3-Leiden transgenic (E3L) mice; test: Plasma lipoprotein profiles (size fractionation of pooled plasma) in E3L mice; type: in vivo, mouse; conditions: day 28, FIG. 1
Protocol: as §2
Lipoprotein profiles were determined in pooled plasma from day 28, as described in Verschuren et al. (2005), Arterioscler. Thromb. Vasc Biol., 25:161-167. An equal amount of plasma per animal was used to prepare a plasma pool for each group. Plasma lipoproteins in each plasma pool were separated by size fractionation. Typically, VLDL, IDL/LDL and HDL lipoproteins are eluted in fractions 4-8, fractions 11-16 and fractions 17-20, respectively.

[12] = system: APOE*3-Leiden transgenic (E3L) mice; test: Plasma adiponectin ELISA in E3L mice; type: in vivo, mouse
Text: as §2
We determined plasma adiponectin levels after a four hour fasting period at 0, 14, 28 days, using a mouse-specific adiponectin/Acrp30 ELISA (kit number MRP300 from R&D Systems, Minneapolis, Minn.).

[13] = E3L mice, HC diet, end of four-week treatment, mean ± SD

Organ and Tissue Weights: Heart [1, 13]: 0.14 ± 0.02 g
Organ and Tissue Weights: Liver [1, 13]: ^#1.77 ± 0.28^ g
Organ and Tissue Weights: Lung [1, 13]: 0.21 ± 0.05 g
liver weight, in words ([1]; relative to its control group): significant increase
Structure (SMILES): CC(C)OC(=O)C(C)(C)Oc1ccc(C(=O)c2ccc(Cl)cc2)cc1 [Fenofibrate, fenofibrate]
Organ and Tissue Weights: Fat (gonadal fat) [1, 13]: 0.48 ± 0.14 g
Lipid Content of Liver: Cholesterol Esters ([2]; end of four-week treatment): 44 ± 6
Lipid Content of Liver: Free Cholesterol ([2]; end of four-week treatment): 21 ± 2
Plasma Alanine Amino Transferase Activity [3]: 112.5 ± 10.4 U/L
Total Plasma Triglyceride Levels ([4]; day 0): 1.6 ± 0.4 mM
Total Plasma Triglyceride Levels ([4]; day 14): ^#*0.7 ± 0.2 mM
Total Plasma Triglyceride Levels ([4]; day 28): ^#*0.7 ± 0.2 mM
Total Plasma Cholesterol ([5]; day 0): 13.6 ± 4.2 mM
Total Plasma Cholesterol ([5]; day 14): *6.5 ± 1.0 mM
Total Plasma Cholesterol ([5]; day 28): *6.2 ± 1.3 mM

Organ and Tissue Weights: Brain ([1]; mouse, in vivo): 0.44 ± 0.02 g
Organ and Tissue Weights: Heart ([1]; mouse, in vivo): 0.14 ± 0.01 g
Organ and Tissue Weights: Liver ([1]; mouse, in vivo): 0.91 ± 0.16 g
Organ and Tissue Weights: Lung ([1]; mouse, in vivo): 0.19 ± 0.02 g
Structure (SMILES): CCCCCCCC/C=C\CCCCCCCC(=O)NCCO [OEA, oleoylethanolamide]
body weights, in words ([6]; last time point (4 weeks), within group): significantly reduced
Body Weight ([6]; week 0): 22.3 ± 1.3 g
Body Weight ([6]; week 0.5): 22.5 ± 1.0 g
Body Weight ([6]; week 1): 22.6 ± 1.0 g
Body Weight ([6]; week 1.5): 21.8 ± 1.1 g
Body Weight ([6]; week 2): 21.9 ± 1.2 g
Body Weight ([6]; week 2.5): 21.9 ± 1.3 g
Body Weight ([6]; week 3): *21.6 ± 1.1 g
Body Weight ([6]; week 3.5): *21.3 ± 1.2 g
Body Weight ([6]; week 4): *21.4 ± 1.2 g
Organ and Tissue Weights: Fat (gonadal fat) [1, 13]: *0.24 ± 0.06 g
gonadal fat weight, in words ([1]; relative to the oral vehicle group): significantly lower
liver cholesterol esters (CE), in words ([2]; compared to the oral vehicle group): significantly increased
Lipid Content of Liver: Cholesterol Esters ([2]; end of four-week treatment): ^#61 ± 7 ^
Lipid Content of Liver: Free Cholesterol ([2]; end of four-week treatment): 21 ± 2
Lipid Content of Liver: Triglycerides ([2]; end of four-week treatment): 94 ± 11
Plasma Alanine Amino Transferase Activity [3]: *68.6 ± 17.6 U/L
Total Plasma Triglyceride Levels ([4]; day 0): 1.5 ± 0.4 mM
Total Plasma Triglyceride Levels ([4]; day 14): 1.7 ± 0.6 mM
Total Plasma Triglyceride Levels ([4]; day 28): *1.3 ± 0.3 mM
total plasma triglyceride levels, in words ([4]; relative to respective control group): slightly decreased
plasma HB levels, in words ([7]; at 28 days, compared to the oral vehicle control group): significantly lower
Plasma Ketone Body (HB) levels ([7]; day 0, 4-hour fasting): 0.79 ± 0.19 mM
Plasma Ketone Body (HB) levels ([7]; day 14, 4-hour fasting): 0.23 ± 0.09 mM
Plasma Ketone Body (HB) levels ([7]; day 28, 4-hour fasting): ^#0.38 ± 0.10^ mM
Food Intake Per Animal Per Day ([8]; interval 0-0.5 weeks): 2.5 ± 0.05 g
Food Intake Per Animal Per Day ([8]; interval 0.5-1.0 weeks): 2.3 ± 0.04 g
Food Intake Per Animal Per Day ([8]; interval 1.0-1.5 weeks): 2.4 ± 0.1 g
Food Intake Per Animal Per Day ([8]; interval 1.5-2.0 weeks): 2.4 ± 0.1 g
Food Intake Per Animal Per Day ([8]; interval 2.0-2.5 weeks): 2.3 ± 0.1 g
Food Intake Per Animal Per Day ([8]; interval 2.5-3.0 weeks): 2.3 ± 0.05 g
Food Intake Per Animal Per Day ([8]; interval 3.0-3.5 weeks): 2.3 ± 0.1 g
Food Intake Per Animal Per Day ([8]; interval 3.5-4.0 weeks): *2.0 ± 0.1 g
Food Intake Per Animal Per Day ([8]; interval run-in): 2.5 ± 0.5 g
food intake, in words ([8]; last time point): slight, but significant, decrease
plasma leptin levels, in words ([9]; at 14 days, relative to the oral vehicle control group): lower
Plasma Leptin Levels ([9]; day 0, four hour fasting): 4.7 ± 2.3 ng/mL
Plasma Leptin Levels ([9]; day 14, four hour fasting): ^#7.3 ± 3.1^ ng/ml
Plasma Leptin Levels ([9]; day 28, four hour fasting): 6.1 ± 4.6 ng/mL
Total Plasma Cholesterol ([5]; day 0): 13.9 ± 3.4 mM
Total Plasma Cholesterol ([5]; day 14): ^#16.0 ± 2.9 mM
Total Plasma Cholesterol ([5]; day 28): ^#15.8 ± 2.7 mM
total plasma cholesterol levels, in words ([5]; days 14 and 28, relative to respective control group): slightly and significantly increased
steatotic (Oil Red O) staining in liver, in words ([10]; compared to the control vehicle group): small, but significant reduction
Oil Red O Staining in Liver, Mild-Severe (above 115 relative units) ([10]; end of four-week treatment): *36 ± 5 % of cross-sectional area
Oil Red O Staining in Liver, Severe (above 175 relative units) ([10]; end of four-week treatment): *8 ± 2 % of cross-sectional area
IDL/LDL particle size, in words [11]: slight shift toward larger IDL/LDL particles
VLDL fraction of plasma lipoprotein profile, in words [11]: increase
Plasma Adiponectin Levels ([12]; day 0, four hour fasting): 12.9 ± 2.8 µg/mL
Plasma Adiponectin Levels ([12]; day 14, four hour fasting): 11.3 ± 3.5 µg/mL
Plasma Adiponectin Levels ([12]; day 28, four hour fasting): 11.4 ± 2 µg/mL
